Reference: US20230413808A1, “Bioactive complexes” (priority 2020, published 2023)

Experiments:
[1] = Visual interaction of active ingredient with polyelectrolyte PAA; format: physicochemical
Description: To determine interaction between polyelectrolytes (PE; Table 1) and active ingredients (AI; Table 2) aqueous stock solutions of about 200 g/L of the PE and of the active ingredients were prepared. The polyelectrolytes were diluted in water and stirred on magnetic stirrer for at least 30 minutes until a homogenous clear solution was obtained (ratios and amounts are presented in Table 4). The active ingredients were dissolved in water on magnetic stirrer or, if they weren't water soluble, suspended in water and milled by adding glass beads (1 mm) in a stainless steel metal beaker until they reach a volume-based average particle size below 20 μm (90% of particles below 20 μm), as determined by laser diffraction. After that the mixture was filtered with a sieve to remove glass beads and the filtrate was used for further analysis.
A polyelectrolyte solution, PAA or chitosan, was added to a 100-150 mL glass beaker, followed by water and an active ingredient solution/suspension. The mixture was stirred for at least 4 hours, and samples were observed after at least 16 hours. The visual observable interactions were divided into five categories (see Table 3). The categories were chosen by comparison to a blank sample containing the same concentration of active ingredient in water but without polyelectrolyte. […] Interactions were studied over a large range of active ingredient to polyelectrolyte ratios, including 10.000:1 (w/w), 1000:1 (w/w), 100:1 (w/w), 10:1 (w/w), 1:1 (w/w), 1:10 (w/w), 1:100 (w/w) and 1:1000) (w/w).

Humectancy assay = format: physicochemical; conditions: dried at 54° C., then 97% relative humidity at 25° C.; weight after/before x 100
Description: The complexes of the interaction assay were used to conduct a humectancy assay. […] After reweighing on an analytical balance, the trays were placed in a climate chamber and stored for at least 2 days at 54° C. or until no further weight change was observed. […] The air tight box was 20 cm×12 cm×7 cm. In the box a chicken wire construct was used to create two levels with 10-20 ml of saturated solution of dipotassium sulfate in a petri dish in a lower level, and the samples in an upper level. Boxes were located into an incubator at 25° C. The boxes were incubated for at least 5 days at 25° C. before use to allow equilibration of temperature and humidity. Hereafter, the trays were reweighed.
The change in humectancy by combining a pesticide and polyelectrolyte is expressed as percent value by multiplying the sample weight after incubation (w2) with 100 divided with the sample weight before incubation (w1) using the following equation: […]
To evaluate the effect of the interaction of the active ingredient and polyelectrolyte on humectancy (synergetic/antagonistic/no effect), the determined Humectancy of the samples containing both active ingredient and polyelectrolyte “Humectancy (blend)” was divided by the theoretical value of Humectancy of the blend provided by respective proportion (% AI; % PE) of each pesticide and polyelectrolyte using the following equation: […]
According to this formula, a positive result of more than 1 is indicative of synergy.
The complexes obtained with the method of WO2010035118, with both ratios of 2:1 and 1:5 (PAA:AI) were tested for humectancy. […] For each sample, the test was carried in triplicate.
For each sample, the test was carried in triplicate.

[2] = tested on: Lolium perenne (Ryegrass); assay: Herbicide efficacy of glyphosate on rye grass; format: in vivo; conditions: for Extra reduction in dry weight: complex formation with PAA vs without PAA, first statement of b170; for Extra reduction in dry weight (second statement): second statement of b170
Excerpt: (§1) The efficacy of glyphosate is often sub-optimal because after drying of the glyphosate active ingredient on the plant tissue the rate of uptake is reduced (dry glyphosate is taken up poorly by the plant tissue). A complex of glyphosate-polycation with improved humectancy properties will remain longer as a wet film on the plant tissue, thereby enhancing uptake of glyphosate in the plant tissue and enhancing its herbicidal activity. In this experiment the effect of a formed complex on efficacy of glyphosate was assessed. The experiment was performed with hard water (500 ppm CaCO3) and with soft water (50 ppm CaCO3).
(§2) The following method was used. Seeds of rye grass and clover were sown in 2 L plastic pots (10 seeds pot) and grown in Lentse Potgrond (Horticoop; Bleiswijk, the Netherlands) in a greenhouse at 22° C. and at light 16 h and dark 8 h, humidity 75%. The experiment was carried out with 2 pots (replications) per treatment. The pots were watered as to keep the plants growing optimal. At the four-five leaf stage, when plants reached a height of 15-20 cm, they were sprayed with the glyphosate treatments with and without PAA (formulations: see Table 12). The spray was such that the plants were wetted completely and uniform. 12 days after the glyphosate treatments, the fresh weight and dry weight of the parts of the plants that were above ground were measured (grams). For dry weight, plants were first dried in an oven at 67 degree Celsius for 48 hours and weight was measured.
(§3) With the method described above rye grass plants were sprayed with two glyphosate formulations: • A. 2700 ppm glyphosate plus 270 ppm complexed with PAA at a 10:1 ratio (glyphosate:PAA; w/w) (formulation see Table 12). • B. 2700 ppm glyphosate without PAA (formulation, see Table 12).

[3] = tested on: Trifolium repens (Clover); assay: Herbicide efficacy of glyphosate on clover; format: in vivo
Excerpt: as §1, §2, §3

[4] = Visual interaction with polyanion sodium lignosulfonate; format: physicochemical; conditions: visible complex formation
[5] = soft water, complex formation with PAA vs without PAA

O=C(O)CNCP(=O)(O)O [Glyphosate, N-(phosphonomethyl)glycine]
Visual observation category, Active ingredient: PAA ([1]; ratio active ingredient:PAA 1.000:1 (w/w)): N
Visual observation category, Active ingredient: PAA ([1]; ratio active ingredient:PAA 1:1 (w/w)): N
Visual observation category, Active ingredient: PAA ([1]; ratio active ingredient:PAA 1:10 (w/w)): N
Visual observation category, Active ingredient: PAA ([1]; ratio active ingredient:PAA 1:100 (w/w)): N
Visual observation category, Active ingredient: PAA ([1]; ratio active ingredient:PAA 1:1000 (w/w)): N
Visual observation category, Active ingredient: PAA ([1]; ratio active ingredient:PAA 10.000:1 (w/w)): N
Humectancy (Humectancy assay): 231.3%
Extra reduction in dry weight ([2]; hard water): 56%
Extra reduction in dry weight (second statement) ([2]; hard water): 48%
Extra reduction in dry weight ([2]; soft water): 44%
Extra reduction in dry weight (second statement) ([2]; soft water): 46%
Extra reduction in dry weight ([3]; hard water, complex formation with PAA (Formulation A) vs without PAA (Formulation B)): 74%
Extra reduction in fresh weight ([3]; hard water, complex formation with PAA vs without PAA): 38%
Extra reduction in dry weight [3, 5]: 47%
Extra reduction in fresh weight [3, 5]: 44%
Interaction with the polyanion sodium lignosulfonate [4]: did not form a visible complex
